“Also recorded” adds a separate entry of the source. Where two headings read alike, the source gives them in different places.
Columns and labels:
[1] = molecular target: T1, dopamine transporter (DAT) (Rattus norvegicus, UniProt P23977); experiment: DAT uptake inhibition assay; type: biochemical
[2] = molecular target: T1, dopamine transporter (DAT); experiment: biochemical; conditions: for DA/5-HT Ratio: ratio of release potencies
rats [3] = conditions: rats trained to discriminate cocaine from saline; ref Carroll et al., 2004; cited from earlier work
rats [4] = conditions: ref Hiranita et al., 2014; cited from earlier work
rats [5] = conditions: ref Hiranita et al., cited from earlier work; for effect on cocaine self-administration dose-effect curve: rats, 2014
sigma receptors = conditions: ref Hiranita et al., 2014; cited from earlier work
CB1Rs = conditions: increased efficacy of CP 55940 in calcium mobilization; ref Navarro et al., 2009; cited from earlier work
mice [6] = conditions: cited from earlier work
mice [7] = conditions: range of behaviorally active doses, ref Carroll et al., 2004; cited from earlier work
DAT = conditions: highest dose studied, 56 mg/kg; ref Hiranita et al., 2014; cited from earlier work
rats [8] = conditions: ref Katz et al., 1999b; cited from earlier work
[9] = compared to amphetamine; ref Rothman et al., 2005; cited from earlier work
rats [10] = conditions: ref Rothman et al., 2005; cited from earlier work
[11] = system: vesicular monoamine transporter 2 (VMAT2); conditions: measured with Tyramine, ref Partilla et al., 2006, cited from earlier work; for EC50: read-out: VMAT2 Release EC50
[12] = cited from earlier work
SERT [13] = molecular target: T2, SERT (Rattus norvegicus, UniProt P31652); experiment: 5-HT release assay in synaptosomes; type: biochemical; conditions: read-out: 5-HT Release EC50; rat brain synaptosomes; mean ± SD, n=3; Table 4
T2 sequence (P31652 whole entry): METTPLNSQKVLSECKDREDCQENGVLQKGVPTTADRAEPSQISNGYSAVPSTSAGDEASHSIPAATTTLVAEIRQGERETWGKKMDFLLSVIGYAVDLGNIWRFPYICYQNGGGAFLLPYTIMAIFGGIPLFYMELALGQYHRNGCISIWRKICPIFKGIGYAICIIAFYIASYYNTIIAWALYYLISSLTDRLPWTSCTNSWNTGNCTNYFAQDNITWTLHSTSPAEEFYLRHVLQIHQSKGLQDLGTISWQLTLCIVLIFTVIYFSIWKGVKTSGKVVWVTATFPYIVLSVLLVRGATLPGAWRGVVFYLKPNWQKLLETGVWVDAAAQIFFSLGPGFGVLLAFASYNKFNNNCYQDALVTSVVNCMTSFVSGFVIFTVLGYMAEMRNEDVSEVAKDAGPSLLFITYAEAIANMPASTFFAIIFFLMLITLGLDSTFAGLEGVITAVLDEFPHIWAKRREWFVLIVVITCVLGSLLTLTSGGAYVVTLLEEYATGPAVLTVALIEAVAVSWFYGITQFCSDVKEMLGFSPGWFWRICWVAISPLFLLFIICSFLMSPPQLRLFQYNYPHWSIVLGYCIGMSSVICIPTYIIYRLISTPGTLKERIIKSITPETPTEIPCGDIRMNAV

mice [14] = conditions: mice trained to discriminate cocaine (10 mg/kg) from saline; ref Loland et al. 2012; cited from earlier work
human = conditions: humans; ref Dackis et al., 2003; Malcolm et al., 2006; Hart et al., 2008; cited from earlier work
[15] = ref Loland et al., 2012; cited from earlier work
SERT [16] = molecular target: T2, SERT; conditions: read-out: 5-HT Release EC50; rat brain synaptosomes; ref Yu et al., 2000; cited from earlier work
[17] = molecular target: T1, dopamine transporter (DAT); conditions: read-out: DAT UI IC50; rat brain synaptosomes; ref Yu et al., 2000; cited from earlier work
rats [18] = experiment: Horizontal locomotor activity; type: in vivo; conditions: male rats, 1 or 3 mg/kg i.v.; Fig. 7, Fig. 8
rats [19] = experiment: In vivo microdialysis in the n. accumbens; conditions: male rats, 1 or 3 mg/kg i.v.; for extracellular (dialysate) DA in n. accumbens: Fig. 7, Fig. 8
DAT Y335A = conditions: ref Loland et al., 2008; cited from earlier work
[20] = read-out: DAT UI IC50, rat brain synaptosomes, mean ± SD, n=3, Table 3
[21] = rat brain synaptosomes, Table 4
[22] = read-out: DA Release EC50, rat brain synaptosomes, mean ± SD, n=3, Table 4
[23] = rat brain synaptosomes, % maximal release, Table 3
[24] = read-out: DA Release EC50, rat brain synaptosomes, mean ± SD, n=3, Table 3

T1 sequence (P23977 whole entry): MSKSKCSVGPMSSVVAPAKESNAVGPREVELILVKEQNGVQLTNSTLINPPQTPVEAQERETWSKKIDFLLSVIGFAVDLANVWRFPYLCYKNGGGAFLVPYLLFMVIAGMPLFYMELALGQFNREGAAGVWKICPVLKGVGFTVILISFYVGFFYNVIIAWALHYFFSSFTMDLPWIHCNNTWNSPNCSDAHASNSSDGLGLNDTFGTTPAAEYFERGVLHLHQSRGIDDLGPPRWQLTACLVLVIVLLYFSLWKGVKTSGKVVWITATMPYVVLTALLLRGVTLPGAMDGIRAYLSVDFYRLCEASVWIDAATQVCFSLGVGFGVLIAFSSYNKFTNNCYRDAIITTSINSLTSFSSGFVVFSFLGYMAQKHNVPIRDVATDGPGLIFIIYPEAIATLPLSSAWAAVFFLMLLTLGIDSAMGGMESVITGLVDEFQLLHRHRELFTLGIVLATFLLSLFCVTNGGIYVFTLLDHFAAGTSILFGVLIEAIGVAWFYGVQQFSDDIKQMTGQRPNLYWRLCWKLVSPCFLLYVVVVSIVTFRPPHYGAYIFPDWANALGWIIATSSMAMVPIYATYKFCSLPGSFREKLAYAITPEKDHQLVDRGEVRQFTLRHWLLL

CCCC(C(=O)c1ccc2c(c1)OCO2)N1CCCC1 (stereo not drawn) [MDPV]
IC50 [1, 20]: 4.1 ± 0.06 nM

NCCc1ccccc1 [Phenethylamine]
EC50 [2]: 39.5 ± 1.8 nM

CNC(C)Cc1ccc2c(c1)OCO2 (stereo not drawn) [MDMA]
DA Release EMAX [2]: 103 ± 2% | EC50 ([2]; read-out: DA Release EC50): 108 ± 10 nM

Cc1ccc(-c2cc([C@@H]3C4CCC(C[C@@H]3c3ccc(Cl)cc3)N4C)on2)cc1 (stereo partly drawn) [RTI-336]
substitution for cocaine (drug discrimination) (rats [3]): fully substitutes | self-administration of the compound versus vehicle (rats [4]): self-administered at levels greater than vehicle | effect on cocaine self-administration dose-effect curve (rats [5]): dose-related leftward shifts in the cocaine self-administration dose effect curve | affinity at sigma receptors (sigma receptors): relatively low affinity at sigma receptors

Cc1ccc([C@H]2C[C@@H]3CC[C@H]([C@H]2c2cc(-c4ccc(Cl)cc4)no2)N3C)cc1 [RTI-371, 3β-(4-methylphenyl)-2β-[3-(4-chlorophenyl)isoxazol-5-yl]tropane]
modulation of CB1Rs (CB1Rs): positive-allosteric modulation of CB1Rs | effect on cocaine-induced locomotor stimulation (mice [6]; preliminary report, ref Navarro et al., 2009): blocked cocaine-induced locomotor stimulation | locomotor activity (mice [7]): failed to stimulate locomotor activity | rate of displacement of [125I]RTI-121 (DAT): 0.320 %/min | substitution for cocaine (drug discrimination) (rats [3]): did not substitute | self-administration of the compound versus vehicle (rats [4]): not self-administered at rates above those obtained with vehicle | effect on cocaine self-administration dose-effect curve (rats [5]): dose-related decreases in the maximum self-administration of cocaine | affinity at sigma receptors (sigma receptors): relatively low affinity at sigma receptors

CN1[C@@H]2C[C@@H](OC(=O)[C@H](CO)c3ccccc3)C[C@H]1[C@@H]1O[C@@H]12 [scopolamine]
effect on effects of cocaine in drug discrimination procedures (rats [8]): potentiation of effects of cocaine

CCCCN1[C@@H]2CC[C@H]1CC(OC(c1ccc(F)cc1)c1ccc(F)cc1)C2 (stereo partly drawn) [JHW 007]
modulation of CB1Rs (CB1Rs): positive-allosteric modulation of CB1Rs | effect on cocaine-induced locomotor stimulation (mice [6]; CB1R wild-type and knockout mice, co-injection, ref Desai et al., 2014): significantly blunted the locomotor stimulant effects of cocaine | effect on cocaine-induced locomotor stimulation (mice [6]; DA D2R knockout and wild-type mice, ref Desai et al., 2014): blocked the stimulant effects of cocaine equally in both knockout and wild-type mice

CC(N)Cc1ccc2ccccc2c1 (stereo not drawn) [PAL-287]
reinforcing effects [9]: lacked strong reinforcing effects | DA release in vivo (microdialysis) (rats [10]): released much less DA than expected | EC50 [11]: 1250 ± 230 nM | locomotor stimulant effect ([12]; compared to amphetamine, ref Rothman et al., 2005): weak locomotor stimulant

CN1[C@@H]2CC[C@H]1C[C@@H](OC(=O)C(CO)c1ccccc1)C2 (stereo partly drawn) [atropine]
effect on effects of cocaine in drug discrimination procedures (rats [8]): potentiation of effects of cocaine

CC(C)(N)Cc1ccccc1 [Phentermine]
VMAT2 Release EC50 (μM) [11]: lack VMAT2 activity | EC50 [11]: > 100000 nM | EC50 [2]: 262 ± 21 nM

C[C@@H]1CN(CCCn2c3ccccc3c3ccccc32)C[C@H](C)N1 [rimcazole]
effect on cocaine self-administration (rats [5]; 2011): blocked cocaine self-administration

CC(N)Cc1cccc(F)c1 (stereo not drawn) [PAL-353]
EC50 (SERT [13]): 1940 ± 202 nM | DA/5-HT Ratio [2, 21]: 80 | EC50 [2, 22]: 24.2 ± 1.1 nM

Cc1cccc(N2CCNCC2)c1C [PAL-218, 2,3-Dimethylphenylpiperazine]
DA Release EMAX [2, 23]: 66 ± 1% | EC50 [2, 24]: 1210 ± 118 nM

c1ccc(CN2CCNCC2)cc1 [Benzylpiperazine]
VMAT2 Release EC50 (μM) [11]: lack VMAT2 activity | EC50 [11]: > 100000 nM | EC50 ([2]; read-out: DAT Release EC50, mean ± SD, n=3, Table 5): 307 ± 19 nM

CNC(C)Cc1ccc2ccccc2c1 (stereo not drawn) [PAL-1046]
DA Release EMAX [2, 23]: 101 ± 3% | EC50 [2, 24]: 10 ± 1 nM

NC(=O)C[S+]([O-])C(c1ccccc1)c1ccccc1 (stereo not drawn) [modafinil]
substitution for cocaine (drug discrimination) (mice [14]): fully substituted for cocaine | effect on cocaine-induced euphoria (human): blunted cocaine-induced euphoria | DA concentrations in the nucleus accumbens shell [15]: increased DA concentrations in the nucleus accumbens shell, though also to a lesser extent than cocaine | locomotor activity ([12]; ref Cao et al., 2010): stimulated locomotor activity, though to a lesser extent than cocaine

CC1NCCOC1c1ccccc1 (single isomer, unassigned; (+)) [(+)-Phenmetrazine]
VMAT2 Release EC50 (μM) [11]: completely inactive | EC50 [11]: > 100000 nM | EC50 [2]: 87.4 ± 7.8 nM

CCNC(C)C(=O)c1ccccc1 (stereo not drawn) [N-Ethylpropion]
EC50 (SERT [16]): 2120 ± 98 nM | IC50 [17]: 1010 ± 80 nM

Fc1ccc(C(O[C@H]2C[C@H]3CC[C@@H](C2)N3CC2CC2)c2ccc(F)cc2)cc1 [JHW013]
locomotor activity ([12]; fast-onset BZT analogs, ref Li et al., 2011): stimulant effects that were substantially reduced compared to those of cocaine

CCN[C@@H](C)Cc1ccc2ccccc2c1 [PAL-1045]
locomotor stimulation (horizontal locomotor activity) (rats [18]): smaller when compared to the full efficacy releaser | extracellular (dialysate) DA in n. accumbens (rats [19]): extracellular DA concentrations increase; also recorded: magnitude of effect on dialysate DA is lower than that of a full efficacy releaser | DA Release EMAX [2, 23]: 78 ± 5% | EC50 [2, 24]: 46 ± 11 nM

CC(NC(C)(C)C)C(=O)c1cccc(Cl)c1 (stereo not drawn) [Bupropion]
IC50 [1]: 658 ± 178 nM

Cc1cccc(CC(C)N)c1 (stereo not drawn) [PAL-314]
EC50 (SERT [13]): 218 ± 22 nM | DA/5-HT Ratio [2, 21]: 6.5 | EC50 [2, 22]: 33.3 ± 1.3 nM

Cc1ccc(N2CCNCC2)cc1 [PAL-233, 4-Methylphenylpiperazine]
IC50 [1, 20]: 9520 ± 436 nM

CCNC(C)Cc1ccccc1 (stereo not drawn) [PAL-99]
DA Release EMAX [2, 23]: 111 ± 13%

Cc1ccccc1N1CCNCC1 [PAL-169, 2-Methylphenylpiperazine]
DA Release EMAX [2, 23]: 90 ± 1% | EC50 [2, 24]: 296 ± 20 nM

CC(N)Cc1ccc(F)cc1 (stereo not drawn) [PAL-303]
EC50 (SERT [13]): 939 ± 76 nM | DA/5-HT Ratio [2, 21]: 18 | EC50 [2, 22]: 51.5 ± 1.7 nM

CN[C@@H](C)Cc1ccccc1 [Methamphetamine]
EC50 [2]: 24.5 ± 2.1 nM

Cc1ccc(CC(C)N)cc1 (stereo not drawn) [PAL-313]
locomotor stimulation (horizontal locomotor activity) (rats [18]): lowest levels of locomotor stimulation | EC50 (SERT [13]): 53.4 ± 4.1 nM | extracellular (dialysate) DA in n. accumbens (rats [19]): lowest level of DA release in vivo | extracellular 5-HT in n. accumbens (rats [19]; Fig. 8): highest level of 5-HT release | DA/5-HT Ratio [2, 21]: 1.2 | EC50 [2, 22]: 44.1 ± 2.6 nM

CCCNC(C)C(=O)c1ccccc1 (stereo not drawn) [PAL-359]
DA UI IC50 (nM) ([1]; rat brain synaptosomes, mean ± SD, n=3 in triplicate, Table 1): inactive

COC(=O)[C@H]1[C@@H](OC(=O)c2ccccc2)C[C@@H]2CC[C@H]1N2C [cocaine]
loss in potency for Y335A compared with wild-type DAT (DAT Y335A): ~100 fold

CNC(C)C(=O)c1ccc(C)cc1 (stereo not drawn) [Mephedrone]
EC50 [2]: 49.1 ± 3.1 nM

— PMC4297708 (Drug and alcohol dependence, 2014)
